Source: the supplement of paper PMC10307832

Columns and labels:
Assay in all cases: relative viability (nuclei count vs DMSO), 5 days (fraction); higher = more cells survive
XMD13-2 + Alpelisib = compound: C1CC1C(=O)NC2=NNC3=C2C=CC(=C3)C4=CC(=CC=C4)C(=O)NC5CC5 [XMD13-2] + Cc1nc(NC(=O)N2CCC[C@H]2C(N)=O)sc1-c1ccnc(C(C)(C)C(F)(F)F)c1 [Alpelisib] (partner 2 µM)
How it was run: (§1)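 For relative viability, nuclei counts in treated wells were divided by those in vehicle wells. Lung cancer cell lines had been pin-tool dosed in 1536-well plates the day after seeding and cultured for 5 days, then fixed and stained in one step (final 0.05% Triton X-100, 1% formaldehyde, 1 ug/ml Hoechst) and imaged at 4×. Doses were one drug alone or a fixed anchor-drug dose plus five library-drug doses (not always all listed) in √10 steps, and values are duplicate-plate medians.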

Dasatinib + Navitoclax = compound: Cc1nc(Nc2ncc(C(=O)Nc3c(C)cccc3Cl)s2)cc(N2CCN(CCO)CC2)n1 [Dasatinib] + CC1(C)CCC(c2ccc(Cl)cc2)=C(CN2CCN(c3ccc(C(=O)NS(=O)(=O)c4ccc(N[C@H](CCN5CCOCC5)CSc5ccccc5)c(S(=O)(=O)C(F)(F)F)c4)cc3)CC2)C1 [Navitoclax] (partner 0.5 µM)
How it was run: as §1

Dasatinib + Crizotinib = compound: Cc1nc(Nc2ncc(C(=O)Nc3c(C)cccc3Cl)s2)cc(N2CCN(CCO)CC2)n1 [Dasatinib] + C[C@@H](Oc1cc(-c2cnn(C3CCNCC3)c2)cnc1N)c1c(Cl)ccc(F)c1Cl [Crizotinib] (partner 1 µM)
How it was run: as §1

Dasatinib + AZD7762 = compound: Cc1nc(Nc2ncc(C(=O)Nc3c(C)cccc3Cl)s2)cc(N2CCN(CCO)CC2)n1 [Dasatinib] + NC(=O)Nc1cc(-c2cccc(F)c2)sc1C(=O)N[C@H]1CCCNC1 [AZD7762] (partner 0.2 µM)
How it was run: as §1

Work on NCI-H441 yielded a relative viability (XMD13-2 + Alpelisib; first compound 0.05 µM) of 0.675, a relative viability (XMD13-2 + Alpelisib; first compound 0.1581 µM) of 1.15 and a relative viability (XMD13-2 + Alpelisib; first compound 0.5 µM) of 0.649. The relative viability (XMD13-2 + Alpelisib; first compound 1.581 µM) was 0.801, the relative viability (XMD13-2 + Alpelisib; first compound 5 µM) was 0.547 and the relative viability (Dasatinib + Navitoclax; first compound 0.005 µM) was 0.579. The relative viability (Dasatinib + Navitoclax; first compound 0.01581 µM) was 0.544, the relative viability (Dasatinib + Navitoclax; first compound 0.05 µM) was 0.456 and the relative viability (Dasatinib + Navitoclax; first compound 0.1581 µM) was 0.241. For the same cell line, the relative viability (Dasatinib + Navitoclax; first compound 0.5 µM) was 0.135, the relative viability (Dasatinib + Crizotinib; first compound 0.005 µM) was 0.62 and the relative viability (Dasatinib + Crizotinib; first compound 0.01581 µM) was 0.626. The relative viability (Dasatinib + Crizotinib; first compound 0.05 µM) was 0.617, the relative viability (Dasatinib + Crizotinib; first compound 0.1581 µM) was 0.309 and the relative viability (Dasatinib + Crizotinib; first compound 0.5 µM) was 0.162. The relative viability (Dasatinib + AZD7762; first compound 0.005 µM) was 1.27, the relative viability (Dasatinib + AZD7762; first compound 0.01581 µM) was 1.01 and the relative viability (Dasatinib + AZD7762; first compound 0.05 µM) was 0.904. For the same cell line, the relative viability (Dasatinib + AZD7762; first compound 0.1581 µM) was 0.723 and the relative viability (Dasatinib + AZD7762; first compound 0.5 µM) was 0.364.
In the case of NCI-H23, the relative viability (XMD13-2 + Alpelisib; first compound 0.05 µM) is reported as 0.731, the relative viability (XMD13-2 + Alpelisib; first compound 0.1581 µM) is reported as 0.676 and the relative viability (XMD13-2 + Alpelisib; first compound 0.5 µM) is reported as 0.752. For the same cell line, the relative viability (XMD13-2 + Alpelisib; first compound 1.581 µM) was 0.669, the relative viability (XMD13-2 + Alpelisib; first compound 5 µM) was 0.806 and the relative viability (Dasatinib + Navitoclax; first compound 0.005 µM) was 0.828. It also gave a relative viability (Dasatinib + Navitoclax; first compound 0.01581 µM) of 0.716, a relative viability (Dasatinib + Navitoclax; first compound 0.05 µM) of 0.896 and a relative viability (Dasatinib + Navitoclax; first compound 0.1581 µM) of 0.496. For the same cell line, the relative viability (Dasatinib + Navitoclax; first compound 0.5 µM) was 0.315, the relative viability (Dasatinib + Crizotinib; first compound 0.005 µM) was 0.409 and the relative viability (Dasatinib + Crizotinib; first compound 0.01581 µM) was 0.425. It also gave a relative viability (Dasatinib + Crizotinib; first compound 0.05 µM) of 0.385, a relative viability (Dasatinib + Crizotinib; first compound 0.1581 µM) of 0.304 and a relative viability (Dasatinib + Crizotinib; first compound 0.5 µM) of 0.213. The relative viability (Dasatinib + AZD7762; first compound 0.005 µM) was 0.321, the relative viability (Dasatinib + AZD7762; first compound 0.01581 µM) was 0.24 and the relative viability (Dasatinib + AZD7762; first compound 0.05 µM) was 0.231. For the same cell line, the relative viability (Dasatinib + AZD7762; first compound 0.1581 µM) was 0.224 and the relative viability (Dasatinib + AZD7762; first compound 0.5 µM) was 0.187.
With NCI-H647 the relative viability (XMD13-2 + Alpelisib; first compound 0.05 µM) was 1.31, the relative viability (XMD13-2 + Alpelisib; first compound 0.1581 µM) was 1.22 and the relative viability (XMD13-2 + Alpelisib; first compound 0.5 µM) was 1.14. The relative viability (XMD13-2 + Alpelisib; first compound 1.581 µM) was 1.05, the relative viability (XMD13-2 + Alpelisib; first compound 5 µM) was 1.22 and the relative viability (Dasatinib + Navitoclax; first compound 0.005 µM) was 0.983. For the same cell line, the relative viability (Dasatinib + Navitoclax; first compound 0.01581 µM) was 0.731, the relative viability (Dasatinib + Navitoclax; first compound 0.05 µM) was 0.392 and the relative viability (Dasatinib + Navitoclax; first compound 0.1581 µM) was 0.307. The relative viability (Dasatinib + Navitoclax; first compound 0.5 µM) was 0.152, the relative viability (Dasatinib + Crizotinib; first compound 0.005 µM) was 0.734 and the relative viability (Dasatinib + Crizotinib; first compound 0.01581 µM) was 0.526. The relative viability (Dasatinib + Crizotinib; first compound 0.05 µM) was 0.285, the relative viability (Dasatinib + Crizotinib; first compound 0.1581 µM) was 0.149 and the relative viability (Dasatinib + Crizotinib; first compound 0.5 µM) was 0.133. For the same cell line, the relative viability (Dasatinib + AZD7762; first compound 0.005 µM) was 0.468, the relative viability (Dasatinib + AZD7762; first compound 0.01581 µM) was 0.399 and the relative viability (Dasatinib + AZD7762; first compound 0.05 µM) was 0.141. The relative viability (Dasatinib + AZD7762; first compound 0.1581 µM) was 0.114 and the relative viability (Dasatinib + AZD7762; first compound 0.5 µM) was 0.155.
For 201T, the relative viability (XMD13-2 + Alpelisib; first compound 0.05 µM) was 1.07, the relative viability (XMD13-2 + Alpelisib; first compound 0.1581 µM) was 1.03 and the relative viability (XMD13-2 + Alpelisib; first compound 0.5 µM) was 0.945. The relative viability (XMD13-2 + Alpelisib; first compound 1.581 µM) was 1, the relative viability (XMD13-2 + Alpelisib; first compound 5 µM) was 1.07 and the relative viability (Dasatinib + Navitoclax; first compound 0.005 µM) was 1.15. It also gave a relative viability (Dasatinib + Navitoclax; first compound 0.01581 µM) of 1.2, a relative viability (Dasatinib + Navitoclax; first compound 0.05 µM) of 1.13 and a relative viability (Dasatinib + Navitoclax; first compound 0.1581 µM) of 1.01. For the same cell line, the relative viability (Dasatinib + Navitoclax; first compound 0.5 µM) was 0.65, the relative viability (Dasatinib + Crizotinib; first compound 0.005 µM) was 0.972 and the relative viability (Dasatinib + Crizotinib; first compound 0.01581 µM) was 0.947. The relative viability (Dasatinib + Crizotinib; first compound 0.05 µM) was 0.933, the relative viability (Dasatinib + Crizotinib; first compound 0.1581 µM) was 0.729 and the relative viability (Dasatinib + Crizotinib; first compound 0.5 µM) was 0.458. For the same cell line, the relative viability (Dasatinib + AZD7762; first compound 0.005 µM) was 0.848, the relative viability (Dasatinib + AZD7762; first compound 0.01581 µM) was 0.635 and the relative viability (Dasatinib + AZD7762; first compound 0.05 µM) was 0.493. It also gave a relative viability (Dasatinib + AZD7762; first compound 0.1581 µM) of 0.455 and a relative viability (Dasatinib + AZD7762; first compound 0.5 µM) of 0.302.
For NCI-H1734, the relative viability (XMD13-2 + Alpelisib; first compound 0.05 µM) was 0.887, the relative viability (XMD13-2 + Alpelisib; first compound 0.1581 µM) was 0.577 and the relative viability (XMD13-2 + Alpelisib; first compound 0.5 µM) was 0.662. For the same cell line, the relative viability (XMD13-2 + Alpelisib; first compound 1.581 µM) was 0.576, the relative viability (XMD13-2 + Alpelisib; first compound 5 µM) was 0.565 and the relative viability (Dasatinib + Navitoclax; first compound 0.005 µM) was 0.729. It also gave a relative viability (Dasatinib + Navitoclax; first compound 0.01581 µM) of 0.695, a relative viability (Dasatinib + Navitoclax; first compound 0.05 µM) of 0.629 and a relative viability (Dasatinib + Navitoclax; first compound 0.1581 µM) of 0.404. It also gave a relative viability (Dasatinib + Navitoclax; first compound 0.5 µM) of 0.374, a relative viability (Dasatinib + Crizotinib; first compound 0.005 µM) of 0.553 and a relative viability (Dasatinib + Crizotinib; first compound 0.01581 µM) of 0.485. For the same cell line, the relative viability (Dasatinib + Crizotinib; first compound 0.05 µM) was 0.515, the relative viability (Dasatinib + Crizotinib; first compound 0.1581 µM) was 0.301 and the relative viability (Dasatinib + Crizotinib; first compound 0.5 µM) was 0.35. For the same cell line, the relative viability (Dasatinib + AZD7762; first compound 0.005 µM) was 0.524, the relative viability (Dasatinib + AZD7762; first compound 0.01581 µM) was 0.482 and the relative viability (Dasatinib + AZD7762; first compound 0.05 µM) was 0.482. It also gave a relative viability (Dasatinib + AZD7762; first compound 0.1581 µM) of 0.406 and a relative viability (Dasatinib + AZD7762; first compound 0.5 µM) of 0.386.
For NCI-H596, the relative viability (XMD13-2 + Alpelisib; first compound 0.05 µM) was 0.624, the relative viability (XMD13-2 + Alpelisib; first compound 0.1581 µM) was 0.543 and the relative viability (XMD13-2 + Alpelisib; first compound 0.5 µM) was 0.407. The relative viability (XMD13-2 + Alpelisib; first compound 1.581 µM) was 0.587, the relative viability (XMD13-2 + Alpelisib; first compound 5 µM) was 0.0287 and the relative viability (Dasatinib + Navitoclax; first compound 0.005 µM) was 0.818. The relative viability (Dasatinib + Navitoclax; first compound 0.01581 µM) was 0.707, the relative viability (Dasatinib + Navitoclax; first compound 0.05 µM) was 0.726 and the relative viability (Dasatinib + Navitoclax; first compound 0.1581 µM) was 0.253. The relative viability (Dasatinib + Navitoclax; first compound 0.5 µM) was 0.187, the relative viability (Dasatinib + Crizotinib; first compound 0.005 µM) was 0.966 and the relative viability (Dasatinib + Crizotinib; first compound 0.01581 µM) was 0.811. It also gave a relative viability (Dasatinib + Crizotinib; first compound 0.05 µM) of 0.637, a relative viability (Dasatinib + Crizotinib; first compound 0.1581 µM) of 0.519 and a relative viability (Dasatinib + Crizotinib; first compound 0.5 µM) of 0.315. It also gave a relative viability (Dasatinib + AZD7762; first compound 0.005 µM) of 0.945, a relative viability (Dasatinib + AZD7762; first compound 0.01581 µM) of 0.828 and a relative viability (Dasatinib + AZD7762; first compound 0.05 µM) of 0.929. The relative viability (Dasatinib + AZD7762; first compound 0.1581 µM) was 0.74 and the relative viability (Dasatinib + AZD7762; first compound 0.5 µM) was 0.553.
